According to ChEMBL document CHEMBL1158467, “In vitro intrinsic clearance-based optimization of N3-phenylpyrazinones as corticotropin-releasing factor-1 (CRF1) receptor antagonists” (J Med Chem, 2009):

Legend:
[1] = AUC in Sprague-Dawley rat at 10 mg/kg, po dosed as aqueous solution of oleoyl macrogolglyceride/DMAC/polysorbate 80, 85:10:5 within 0.25 to 24 hrs; type: ADME, organism-based; parameters: time 0.25-24 hr, dose 10 mg/kg, route oral; conditions: plasma
Rattus norvegicus [2] = assay: Ex vivo receptor occupancy of CRF1 receptor in po dosed Sprague-Dawley rat brain after 20 mins by autoradiography; type: functional, organism-based
[3] = AUC in Sprague-Dawley rat at 10 mg/kg, po dosed as aqueous suspension of 1% polysorbate 80 in 0.5% methylcellulose within 0.25 to 24 hrs; type: ADME, organism-based; parameters: time 0.25-24 hr, dose 10 mg/kg, route oral; conditions: in vivo
[4] = target: T1, Corticotropin-releasing factor receptor 1 (Homo sapiens, UniProt P34998); assay: Antagonist activity at CRF1 receptor in human Y-79 cells assessed as inhibition of CRF-induced cAMP production after 30 mins by HTRF analysis
T1 sequence (P34998 whole entry): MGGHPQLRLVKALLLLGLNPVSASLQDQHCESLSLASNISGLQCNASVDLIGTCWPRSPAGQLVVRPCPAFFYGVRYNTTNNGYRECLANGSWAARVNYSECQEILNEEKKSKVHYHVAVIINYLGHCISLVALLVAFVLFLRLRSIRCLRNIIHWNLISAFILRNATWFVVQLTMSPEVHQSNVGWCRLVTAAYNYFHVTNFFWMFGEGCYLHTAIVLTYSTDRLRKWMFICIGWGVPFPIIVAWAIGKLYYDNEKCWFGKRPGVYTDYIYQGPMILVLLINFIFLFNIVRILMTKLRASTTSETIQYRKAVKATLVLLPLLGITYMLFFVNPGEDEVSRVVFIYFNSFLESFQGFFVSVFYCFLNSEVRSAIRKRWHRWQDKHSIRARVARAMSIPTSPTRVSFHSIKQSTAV

Rattus norvegicus [5] = assay: Total plasma concentration in Sprague-Dawley rat at 10 mg/kg, po; type: ADME, organism-based; parameters: dose 10 mg/kg, route oral; conditions: in vivo
[6] = Clearance in Sprague-Dawley rat 2 mg/kg, iv within 0.17 to 24 hrs; type: ADME, organism-based; parameters: dose 2 mg/kg, route intravenous; conditions: in vivo
Rattus norvegicus [7] = assay: Plasma free concentration in Sprague-Dawley rat at 10 mg/kg, po; type: ADME, organism-based; parameters: dose 10 mg/kg, route oral; conditions: in vivo
[8] = Intrinsic clearance in human liver microsomes at 1 uM; type: ADME, Microsome
Rattus norvegicus [9] = assay: Cmax in Sprague-Dawley rat at 10 mg/kg, po dosed as aqueous solution of oleoyl macrogolglyceride/DMAC/polysorbate 80, 85:10:5 within 0.25 to 24 hrs; type: ADME, organism-based; parameters: dose 10 mg/kg, route oral; conditions: in vivo
[10] = target: T2, Corticotropin-releasing factor receptor 1 (Rattus norvegicus, UniProt P35353); assay: Displacement of [125I]ovine-CRF from CRF1 receptor in rat frontal cortex by rapid filtration technique; type: tissue-based
T2 sequence (P35353 whole entry): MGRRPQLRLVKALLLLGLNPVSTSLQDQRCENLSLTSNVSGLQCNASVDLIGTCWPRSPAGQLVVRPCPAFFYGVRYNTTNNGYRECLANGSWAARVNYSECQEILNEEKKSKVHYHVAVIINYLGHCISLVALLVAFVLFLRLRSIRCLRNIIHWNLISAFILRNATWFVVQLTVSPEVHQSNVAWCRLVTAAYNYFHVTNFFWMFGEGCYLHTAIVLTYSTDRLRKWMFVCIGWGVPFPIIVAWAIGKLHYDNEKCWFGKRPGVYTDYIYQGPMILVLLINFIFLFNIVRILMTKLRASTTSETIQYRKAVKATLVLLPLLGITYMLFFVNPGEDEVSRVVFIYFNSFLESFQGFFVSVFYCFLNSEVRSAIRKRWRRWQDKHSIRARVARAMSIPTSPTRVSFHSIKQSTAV

Rattus norvegicus [11] = assay: Ex vivo receptor occupancy of CRF1 receptor in Sprague-Dawley rat brain at 1 mg/kg, po after 20 mins by autoradiography relative to [125I-tyrosine]sauvagine; type: functional
Rattus norvegicus [12] = assay: Ex vivo receptor occupancy of CRF1 receptor in Sprague-Dawley rat brain at 10 mg/kg, po after 20 mins by autoradiography relative to [125I-tyrosine]sauvagine; type: functional
[13] = Aqueous solubility at pH 6.5; type: physicochemical
Rattus norvegicus [14] = assay: Anxiolytic activity in Sprague-Dawley rat at 3 mg/kg, po assessed as decrease in exit latency after 60 mins by defensive withdrawal test relative to control; type: functional; parameters: scale not given: the % may be the effect or the level left
[15] = Aqueous solubility at pH 1; type: physicochemical
Rattus norvegicus [16] = assay: Ex vivo receptor occupancy of CRF1 receptor in Sprague-Dawley rat brain at 3 mg/kg, po after 20 mins by autoradiography relative to [125I-tyrosine]sauvagine; type: functional
Rattus norvegicus [17] = assay: Total plasma concentration in Sprague-Dawley rat at 1 mg/kg, po; type: ADME, organism-based; parameters: dose 1 mg/kg, route oral; conditions: in vivo
[18] = Volume of distribution at steady state in Sprague-Dawley rat 2 mg/kg, iv within 0.17 to 24 hrs; type: ADME, organism-based; parameters: dose 2 mg/kg, route intravenous; conditions: in vivo, read-out: Vdss
Rattus norvegicus [19] = assay: Oral bioavailability in Sprague-Dawley rat at 10 mg/kg dosed as aqueous solution of oleoyl macrogolglyceride/DMAC/polysorbate 80, 85:10:5 within 0.25 to 24 hrs; type: ADME, organism-based; conditions: in vivo
Rattus norvegicus [20] = assay: Plasma free concentration in Sprague-Dawley rat at 3 mg/kg, po; type: ADME, organism-based; parameters: dose 3 mg/kg, route oral; conditions: in vivo
[21] = target: Corticotropin releasing hormone receptor 2 (Sus scrofa, UniProt B8Q4Z9); assay: Displacement of [125I]sauvagine from CRF2 receptor in pig choroid plexus by rapid filtration technique; type: tissue-based
Sequence of Corticotropin releasing hormone receptor 2 (B8Q4Z9 whole entry): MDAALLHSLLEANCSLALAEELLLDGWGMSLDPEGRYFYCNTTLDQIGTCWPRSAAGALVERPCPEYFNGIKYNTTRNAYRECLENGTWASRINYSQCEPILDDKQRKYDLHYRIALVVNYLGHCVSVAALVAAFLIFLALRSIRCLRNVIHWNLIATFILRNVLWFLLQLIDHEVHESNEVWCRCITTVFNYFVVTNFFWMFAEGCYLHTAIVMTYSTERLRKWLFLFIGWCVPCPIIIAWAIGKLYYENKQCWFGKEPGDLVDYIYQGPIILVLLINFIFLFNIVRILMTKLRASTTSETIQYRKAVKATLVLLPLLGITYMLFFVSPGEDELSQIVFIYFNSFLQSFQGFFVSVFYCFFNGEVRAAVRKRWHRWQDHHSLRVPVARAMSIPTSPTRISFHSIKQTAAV

Rattus norvegicus [22] = assay: Plasma free concentration in Sprague-Dawley rat at 1 mg/kg, po; type: ADME, organism-based; parameters: dose 1 mg/kg, route oral; conditions: in vivo
[23] = Cmax in Sprague-Dawley rat at 10 mg/kg, po dosed as aqueous suspension of 1% polysorbate 80 in 0.5% methylcellulose within 0.25 to 24 hrs; type: ADME, organism-based; parameters: dose 10 mg/kg, route oral; conditions: in vivo
Rattus norvegicus [24] = assay: Total plasma concentration in Sprague-Dawley rat at 3 mg/kg, po; type: ADME, organism-based; parameters: dose 3 mg/kg, route oral; conditions: in vivo
[25] = Fraction unbound in Sprague-Dawley rat plasma at 10 mg/kg, po after 3 hrs by equilibrium dialysis; type: ADME, organism-based; parameters: dose 10 mg/kg, route oral
[26] = Oral bioavailability in Sprague-Dawley rat at 10 mg/kg dosed as aqueous suspension of 1% polysorbate 80 in 0.5% methylcellulose within 0.25 to 24 hrs; type: ADME, organism-based; conditions: in vivo
Rattus norvegicus [27] = assay: Anxiolytic activity in Sprague-Dawley rat at 10 mg/kg, po assessed as decrease in exit latency after 60 mins by defensive withdrawal test relative to control; type: functional; parameters: scale not given: the % may be the effect or the level left
Rattus norvegicus [28] = assay: Anxiolytic activity in Sprague-Dawley rat at 1 mg/kg, po assessed as decrease in exit latency after 60 mins by defensive withdrawal test relative to control; type: functional; parameters: scale not given: the % may be the effect or the level left
[29] = Half life in Sprague-Dawley rat 2 mg/kg, iv within 0.17 to 24 hrs; type: ADME, organism-based; parameters: dose 2 mg/kg, route intravenous; conditions: in vivo

## C[C@@H](C1CC1)n1cc(Cl)nc(Nc2c(Cl)cc(OC(F)F)cc2Cl)c1=O
[1]
  AUC: 12 µM·h
Rattus norvegicus [2]
  Activity: Dose-dependent effect
[3]
  AUC: 1.3 µM·h
[4]
  IC50: 4.9 nM
Rattus norvegicus [5]
  concentration: 790 nM
[6]
  clearance: 17 mL/min/kg
Rattus norvegicus [7]
  Cp(f): 6.1 nM
[8]
  CLint scaled at 1 µM: 62 mL/min/kg
Rattus norvegicus [9]
  Cmax: 1700 nM
[10]
  IC50: 1 nM
Rattus norvegicus [11]
  Activity: 43%
Rattus norvegicus [12]
  Activity: 83%
[13]
  solubility: < 1 µg/mL
Rattus norvegicus [14]
  Activity: 46%
[15]
  solubility: < 1 µg/mL
Rattus norvegicus [16]
  Activity: 73%
Rattus norvegicus [17]
  concentration: 80 nM
[18]
  Vd: 4.7 L/kg
Rattus norvegicus [19]
  F: 52%
Rattus norvegicus [20]
  Cp(f): 2.1 nM
[21]
  IC50: > 10000 nM
Rattus norvegicus [22]
  Cp(f): 0.62 nM
[23]
  Cmax: 100 nM
Rattus norvegicus [24]
  concentration: 270 nM
[25]
  fraction unbound at 3 h: 0.0077
[26]
  bioavailability: 5%
Rattus norvegicus [27]
  Activity: 61%
Rattus norvegicus [28]
  Activity: 8%
[29]
  half-life: 7.8 h
